Consider 1 substance from patent US8110365B2, “Compositions and methods for detecting and treating renal injury and inflammation” (Rhode Island Hospital, priority 2006, dated 2012).

Entries after “also recorded” stand apart in the source; their conditions may differ.

The subject of one data set is NF-κB. Put plainly: NF-κB luciferase reporter gene assay in endothelial cells. Format: cell-based, human. Particulars: 24 h. As for the experimental part:
(§1) To explore the role of GSK3b in HGF suppression of inflammation, we examined the effect of HGF on NF-κB activation in endothelial cells (FIG. 8A˜C) and TEC (FIG. 8D). […] (FIG. 8A). To determine whether HGF modulation of NF-κB transcriptional activity alters target gene (E-selectin) levels, DNA affinity precipitation assay was carried out at 4 h after treatment. Proteins in cell lysates were pulled down by biotin labeled oligonucleotides with the sequence of the E-selectin promoter region spanning the κB elements. […] To further examine the effect of HGF on NF-κB binding to the E-selectin gene in vivo, chromatin immunoprecipitation (ChIP) was applied at 4 h after treatments (FIG. 8C).

A further data set deals with PI3K-Akt. Put plainly: PI3K-Akt activation in HKC / TEC. Format: cell-based, human.
The next data set deals with endothelial E-selectin. Put plainly: Acute inflammation induced by bolus injection of TNF-α in vivo. Conditions: infusion of exogenous HGF.
A further data set concerns the target GSK3b (Homo sapiens, UniProt P49841). Put plainly: Inhibitory phosphorylation of GSK3b in HUVEC (immunoblot). Format: cell-based. Also on record: endogenous in cells. Conditions: LiCl 20 mM, HGF 100 ng/ml.
The target of data set [1] is T1, GSK3b and NFkB p65 (Homo sapiens, UniProt P49841).
T1 construct: whole cell lysates were subjected to immunoprecipitation by anti-GSK3b or anti-p65 antibody; endogenous in cells; host or cells: HKC-8
T1 sequence (P49841 whole entry): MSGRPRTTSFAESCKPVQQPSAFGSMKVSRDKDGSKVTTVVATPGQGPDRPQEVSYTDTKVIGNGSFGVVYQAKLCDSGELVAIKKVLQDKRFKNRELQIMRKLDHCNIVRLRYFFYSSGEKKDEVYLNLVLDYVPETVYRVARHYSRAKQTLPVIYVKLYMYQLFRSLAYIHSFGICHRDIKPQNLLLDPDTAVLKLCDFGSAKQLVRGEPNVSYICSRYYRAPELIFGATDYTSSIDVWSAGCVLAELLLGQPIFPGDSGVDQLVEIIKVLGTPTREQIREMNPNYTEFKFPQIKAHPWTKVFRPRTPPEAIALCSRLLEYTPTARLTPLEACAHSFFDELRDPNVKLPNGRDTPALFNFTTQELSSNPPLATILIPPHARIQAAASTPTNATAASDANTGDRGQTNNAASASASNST
Nature of the data set: Co-immunoprecipitation of GSK3b and NFkB p65 in HKC cells. Format: cell-based. As for the experimental part: (§2) Immunoprecipitation was carried out by using an established method as described previously. Briefly, cells were washed with ice cold PBS and then lysed with RIPA buffer. After preclearing with normal IgG, cell lysates with equal amount of total protein (0.5 mg of protein) were incubated overnight at 4° C. with 4 μg specific agarose-conjugated antibodies. The precipitated complexes were collected, washed, and separated on SDS-polyacrylamide gels and blotted with various antibodies as indicated.

The target in data set [2] is T2, GSK3b and NFkB p65 (Homo sapiens, UniProt P49841, S9A).
T2 construct: endogenous in cells; host or cells: HKC-8
T2 sequence (P49841 whole entry S9A): as the sequence (P49841 whole entry) above, with S9A counted along it
Described as above. Format: cell-based. Conditions: HKC cells expressing S9A, TNF-a stimulation. Here is the method:
as §2

For a further data set, the system named is NFkB p65. Nature of the data set: TNF-a induced NFkB p65 phosphorylation in HKC cells (immunoblot). Format: cell-based, human. As for the experimental part:
Human proximal TEC (HKC-8) (courtesy of Dr. L. Racusen of John Hopkins University, Baltimore, Md.) were maintained in Dulbecco's modified Eagle's medium (DMEM)/F12 supplemented with 5% fetal bovine serum (FBS). Cells were plated at approximately 70% confluence in the media containing 5% FBS for 24 h and then underwent serum starvation for another 24 h. Human recombinant HGF and human recombinant TNF-α (R&D systems, Minneapolis, Minn.) were added to the culture with fresh serum-free medium at a final concentration of 20 ng/ml and 2 ng/ml respectively, or otherwise as indicated. Cell viability was assessed by Trypan blue exclusion. At different time points, cells and conditioned media were harvested for further investigation.
After different treatments, HKC cells were washed with PBS and lysed with RIPA buffer supplemented with protease inhibitors [1% Nonidet P-40, 0.1% SDS, 100 ug/ml phenylmethysulfonyl fluoride (PMSF), 0.5% sodium deoxycholate, ImM sodium orthovanadate, 2 ug/ml aprotin, 2 ug/ml leupeptin, 5mM EDTA in PBS]. Protein concentration was determined by using a bicinchoninic acid protein assay kit (Sigma). All samples with equal amounts of total protein (50 ug/ml) were fractionated by 7.5˜15% SDS-polyacrylamide gels under reducing condition and analyzed by western immunoblot as described previously (30). The antibodies against p-GSK3b, p-NFkB p65, p-IkBa were purchased from Cell Signaling Technology (Beverly, Mass.) and those for GSK3b, hemagglutin were from Santa Cruz Biotechnology (Santa Cruz, Calif.).

Data set [3] deals with phosphatidylinositol 3-kinase (PI3K)-Akt. Put plainly: PI3K-Akt activation in HUVEC. Format: cell-based, human.
For data set [4], the system named is NF-κB p65 binding to E-selectin promoter. Nature of the data set: DNA affinity precipitation and ChIP of NF-κB p65 at the E-selectin promoter in HUVEC. Format: cell-based, human. Conditions: 4 h after treatment. Here is the method: as §1
The subject of the next data set is NFkB target genes. Nature of the data set: Real time RT-PCR of NFkB target genes in TNF-a stimulated HKC cells. Format: cell-based, human. As for the experimental part:
Total RNA was extracted from approximately 1×10^6 cultured HKC cells using TRIzol solution (Invitrogen, Carlsbad, Calif.) according to the instructions specified by the manufacturer. RNA was then diluted to 3μg/μl in RNase free distilled water. The first strand cDNA was prepared using 3 μg RNA, Superscript RT reverse transcriptase (Invitrogen) and oligo (dT) primer according to the manufacture's instruction. Quantitative real time PCR was carried out on a Stratagene Mx4000® multiplex quantitative PCR system (Stratagene, La Jolla, Calif.) using primers specific for human MCP-1, RANTES, IkBa, Bcl-2 and GAPDH. All reactions were performed in triplicate with Brilliant® SYBR® Green QPCR Master Mix (Stratagene). Fluorescence values of SYBR Green I dye, representing the amount of product amplified at that point in the reaction, were recorded in real time at both the annealing step and the extension step of each cycle. The Ct value, defined as the point at which the fluorescence signal was statistically significant above background, was calculated for each amplicon in each experimental sample using Stratagene Mx4000 software. This value was then used to determine the relative amount of amplification in each sample by interpolating from the standard curve. Transcript level of each specific gene was normalized to GAPDH amplification.

The test system of another data set is endothelial cells. Nature of the data set: Monocyte adhesion to TNF-α-activated endothelial monolayers. Format: cell-based, human.

Sequence of GSK3b (P49841 whole entry): as the sequence (P49841 whole entry) above

For the substance “HGF: Human recombinant HGF (R&D systems); induces inhibitory phosphorylation of GSK3b”, the “TNF-α induced NF-κB reporter gene (transcription) activity” value with NF-κB is “suppressed TNF-a induced NF-kB reporter gene activity; also recorded: significantly reduced TNF-α induced NF-κB transcription activity; also recorded: blunts NF-kB activation”. The PI3K-Akt activation entry is given as “elicited PI3K-Akt activation; also recorded: activates PI3K-Akt in TEC” in the data set with PI3K-Akt and “activated phosphatidylinositol 3-kinase (PI3K)-Akt” in data set [3]. Also, the “endothelial expression of E-selectin” value in the data set with endothelial E-selectin is “reduced endothelial expression of E-selectin induced by bolus injection of TNF-α”. The “sequestration of circulating macrophages in the kidney” value in the data set on endothelial E-selectin was “less sequestration of circulating macrophages in the kidney”. For the same substance, the “inhibitory phosphorylation of GSK3b at serine 9” value with GSK3b is “inhibited its downstream transducer, GSK-3b, by phosphorylation at serine-9; also recorded: inactivates GSK3b by inhibitory phosphorylation at ser-9; also recorded: induces inhibitory phosphorylation of GSK3b”. The “TNF-a induced co-precipitation of phosphorylated p65 (Ser468) with GSK3b” value with GSK3b and NFkB p65 [1] (HKC cells, immunoprecipitation by anti-GSK3b) is “abrogated TNFa induced co-precipitation”. Moreover, the “TNF-a induced GSK3b to p65 interaction” value with GSK3b and NFkB p65 [1] (HKC cells, immunoprecipitation by anti-p65) was “remarkably overridden by HGF; also recorded: suppressive effect on physical interaction between GSK3b and RelA/p65”. In addition, the “co-precipitation of HA-tagged GSK3b with p65 / phosphorylated p65(S468)” value with GSK3b and NFkB p65 [1] (WT transfected HKC cells, TNF-a stimulation) is “markedly reduced HA co-precipitation with p65 in the WT transfected cells; also recorded: significantly attenuated by HGF in WT transfected cells”; with GSK3b and NFkB p65 [2] it was “considerably abrogated in HKC cells expressing S9A; also recorded: substantially blunted in cells expressing S9A; also recorded: overridden in cells expression the mutant uninhibitable GSK3b”. In addition, the “TNF-a induced p65 phosphorylation at other sites (S276, S536)” value in the data set on NFkB p65 (HKC cells) is “had minimal effect on S276”. For the same substance, the “HGF inhibition of TNF-a-induced phosphorylation of p65 at S468” value with NFkB p65 (HKC cells expressing GSK3b S9A) is reported as “strikingly abolished in cells expressing S9A; also recorded: obliterated in HKC cells expressing GSK3b S9A”. For the same substance, in the data set on NFkB p65 (HKC cells, TNF-a 2 ng/ml, VPA 1 mM, 10 uM for 60 minutes), the “TNF-a induced p65 phosphorylation at S468” value is listed as “markedly abolished TNF-a induced phosphorylation of S468 in a time dependent fashion; also recorded: suppresses NFkB phosphorylation specifically at S468”. Moreover, in [4], the “TNF-α induced NF-κB binding to E-selectin promoter / gene” value is “counteracted NF-kB interaction with kB elements at the E-selectin gene level; also recorded: significantly blunted TNF-α induced NF-κB binding to E-selectin promoter sequence; also recorded: prevents NF-κB mediated transcription of E-selectin; also recorded: blunts NF-kB activation and its target E-selectin gene”. The “suppressive effect of HGF on TNF-a induced MCP-1 and RANTES mRNA expression” value is on record as “obliterated in cells expressing S9A; also recorded: obliterated in cells expressing the mutant uninhibitable GSK3b” in the data set with NFkB target genes (HKC cells expressing S9A) and “present in cells transfected with EV or WT” in the data set on NFkB target genes (HKC cells transfected with EV or WT). Besides, the “TNF-a induced mRNA expression of IkBa and Bcl-2” value in the data set with NFkB target genes (HKC cells, 12 h) is given as “not remarkably affected”. The “TNF-a induced mRNA expression of MCP-1 and RANTES” value with NFkB target genes (HKC cells, 12 h) was “strikingly attenuated TNF-a induced mRNA expression of MCP-1 and RANTES; also recorded: selectively regulates TNF-a induced transcription of specific NFkB target genes”. The “monocytic adhesion to endothelial cells” value with endothelial cells is listed as “abrogated monocyte adhesion to TNF-α-activated endothelial monolayers; also recorded: inhibited E-selectin mediated monocytic adhesion to endothelial cells”.
